According to patent US20100003217A1, “Compounds and Pharmaceutical Compositions for the Treatment of Viral Infections” (priority 2008, published 2010):
“And” between values parts separate entries of the source, which are not always exact repeats. Identical values can stand only once.

Experiments:
[1] = Stability in monkey liver microsomes; type: in vitro ADME; settings: for NADPH-dependent metabolism: monkey liver microsomes; for % Residual compound following incubation with liver microsomes: monkey microsomes 1 mg/mL; for % Residual Compound 1 / % Residual Compound 2: monkey liver microsomes 1 mg/mL; for % Residual Compound 2: 15 min
Experimental: Disappearance of parent Compound 1 was used to evaluate the in vitro metabolism thereof. Relative levels of unchanged Compound 1 were measured by HPLC-UV method 1. Residual Compound 1 is reported as percent difference from time zero or control. The HPLC-UV system was as follows:
Incubations with liver microsomes or cytosol were conducted in a final volume of 0.1 mL per incubation time point. […] DMSO (final DMSO concentration was 0.1%) was incubated at 37° C. from 0-60 min with pooled microsomal protein (1.0 mg/mL), suspended in incubation buffer (0.1 M potassium phosphate, pH 7.4, 5 mM MgCl2, and 0.1 mM EDTA). The microsomal reaction was initiated by the addition of NADPH (3 mM final concentration). Incubations with (a) no protein or (b) no NADPH served as controls. Reactions were terminated by the addition of 0.2 mL of stop solution (acetonitrile). The samples were vortex-mixed for 30 sec and then centrifuged at 10,000×g for 10 min. The supernatant was dried using a Labconco CentriVap concentrator and the dry residue reconstituted in water, transferred to an HPLC glass vial and analyzed by HPLC-UV method 1 (described above).
Metabolic stability of the proposed metabolites was conducted by incubating the chemically synthesized standards Compound 2, Compound 4 and Compound 3 as described above for Compound 1. When possible, formation of Compound 5 was verified by incubating samples with alkaline phosphatase (10 U) for 60 min at 37° C.

rat primary hepatocytes = assay: Metabolic disposition of [^14C]-Compound 1 and [^14C]-2′-C-methyl guanosine in rat primary hepatocytes (incubation medium, cellular extracts, nucleotide levels); type: in vitro ADME, Sprague Dawley rat
Summary of the method: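 Rat, monkey or human primary hepatocytes on collagen I plates (1.6 million cells/mL) were incubated at 37° C with 1 or 10 μM C-8 [^14C]-labelled compound or 2′-C-methyl guanosine for 1, 4, 8 and 24 hours. Medium and 70% methanol cell extracts were analysed by LSC and radio-HPLC. Nucleotides were identified by alkaline phosphatase treatment and retention-time matching to standards.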

[2] = rat hepatocytes (Rs448, Rs458), 10 μM [^14C]-Compound 1, 8 h
[3] = rat hepatocytes (Rs448, Rs458), 10 μM [^14C]-Compound 1, 24 h
[4] = rat hepatocytes (Rs458), 1 μM [^14C]-Compound 1, 0 h
[5] = rat hepatocytes (Rs458), 1 μM [^14C]-Compound 1, 1 h
[6] = rat hepatocytes (Rs458), 1 μM [^14C]-Compound 1, 8 h
[7] = rat hepatocytes (Rs458), 1 μM [^14C]-Compound 1, 24 h
[8] = rat hepatocytes (lots Rs448, Rs458), 10 μM [^14C]-Compound 1, 0 h
[9] = rat hepatocytes (lots Rs448, Rs458), 10 μM [^14C]-Compound 1, 1 h
[10] = rat hepatocytes (lots Rs448, Rs458), 10 μM [^14C]-Compound 1, 4 h
[11] = rat hepatocytes (lots Rs448, Rs458), 10 μM [^14C]-Compound 1, 8 h
[12] = rat hepatocytes (lots Rs448, Rs458), 10 μM [^14C]-Compound 1, 24 h

In the case of CC(C)(CO)C(=O)SCCOP(N)(=O)OC[C@H]1O[C@@H](n2cnc3c(=O)[nH]c(N)nc32)[C@](C)(O)[C@@H]1O (mixture of isomers) [Compound 3, {9-[(2R)2-C-methyl-β-D-ribo-furanosyl]-guanin}-5′-yl-O-(hydroxy-tert-butyl-S-acyl-2-thioethyl) phosphoramidate], the NADPH-dependent metabolism ([1]; 60 min, 50 μM) is reported as 20-30%, the “% Residual compound following incubation with liver microsomes” value ([1]; 60 min, 50 μM, NADPH) is reported as 76% and the “% Residual compound following incubation with liver microsomes” value ([1]; 60 min, 50 μM, No Cofactor) is reported as 89%. For the same molecule, the “metabolites observed in cellular extracts (% of total radioactivity)” value (rat primary hepatocytes; [2]) was “BLD”, the “metabolites observed in cellular extracts (% of total radioactivity)” value (rat primary hepatocytes; [3]) was “BLD” and the “metabolites observed in medium (% of total radioactivity)” value (rat primary hepatocytes; [4]) was “BLD”. For the same molecule, the “metabolites observed in medium (% of total radioactivity)” value (rat primary hepatocytes; [5]) was “BLD”, the “metabolites observed in medium (% of total radioactivity)” value (rat primary hepatocytes; [6]) was “BLD” and the “metabolites observed in medium (% of total radioactivity)” value (rat primary hepatocytes; [7]) was 1.7% and 1.71%. The “metabolites observed in medium (% of total radioactivity)” value (rat primary hepatocytes; [8]) was “BLD”, the “metabolites observed in medium (% of total radioactivity)” value (rat primary hepatocytes; [9]) was “BLD” and the “metabolites observed in medium (% of total radioactivity)” value (rat primary hepatocytes; [10]) was 0.9%. The “metabolites observed in medium (% of total radioactivity)” value (rat primary hepatocytes; [11]) was 1.4% and 2.1% and the “metabolites observed in medium (% of total radioactivity)” value (rat primary hepatocytes; [12]) was 1.4% and 1.7%.
With CC(C)(CO)C(=O)SCCOP(=O)(NCc1ccccc1)OC[C@H]1O[C@@H](n2cnc3c(=O)[nH]c(N)nc32)[C@](C)(O)[C@@H]1O (mixture of isomers) [Compound 1, 3-hydroxy-2,2-dimethyl-thiopropionic acid S-(2-{[(2R,3R,4R,5R)-5-(2-amino-6-oxo-1,6-dihydro-purin-9-yl)-3,4-dihydroxy-4-methyl-tetrahydro-furan-2-ylmethoxy]-benzylamino-phosphoryloxy}-ethyl) ester] the “% Residual Compound 1” value ([1]; 10 μM, 0 min, NADPH) was 100%, the “% Residual Compound 1” value ([1]; 10 μM, 0 min, No Cofactor) was 100% and the “% Residual Compound 1” value ([1]; 10 μM, 30 min, NADPH) was 0%. The “% Residual Compound 1” value ([1]; 10 μM, 30 min, No Cofactor) was 81%, the “% Residual Compound 1” value ([1]; 10 μM, 60 min, NADPH) was 0% and the NADPH-dependent metabolism ([1]; NADPH, 30 min, 10 μM) was 100%. The “metabolites observed in cellular extracts (% of total radioactivity)” value (rat primary hepatocytes; rat hepatocytes (Rs448, Rs458), 10 μM [^14C]-Compound 1, 1 h, listed as Compd 1) was 15.0% and 19.7%, the “metabolites observed in cellular extracts (% of total radioactivity)” value (rat primary hepatocytes; rat hepatocytes (Rs448, Rs458), 10 μM [^14C]-Compound 1, 4 h, listed as Compd 1) was 3.86% and 4.02% and the “metabolites observed in cellular extracts (% of total radioactivity)” value (rat primary hepatocytes; rat hepatocytes (Rs448, Rs458), 10 μM [^14C]-Compound 1, 8 h, listed as Compd 1) was 1.20% and 0.95%. The “metabolites observed in cellular extracts (% of total radioactivity)” value (rat primary hepatocytes; [3]) was “undetected”, the “metabolites observed in cellular extracts (% of total radioactivity)” value (rat primary hepatocytes; rat hepatocytes (Rs448, Rs458), 10 μM [^14C]-Compound 1, 24 h, listed as Compd 1) was “BLD” and the “metabolites observed in cellular extracts (% of total radioactivity)” value (rat primary hepatocytes; [5]) was 12.3%. For the same molecule, the “metabolites observed in cellular extracts (% of total radioactivity)” value (rat primary hepatocytes; [6]) was “BLD”, the “metabolites observed in cellular extracts (% of total radioactivity)” value (rat primary hepatocytes; [7]) was “BLD” and the “reduction in Compound 1 medium levels” value (rat primary hepatocytes; rat hepatocytes, 1 μM, 8 hours) was “approximately 79%”. The “decrease in Compound 1 medium levels” value (rat primary hepatocytes; rat hepatocytes, 10 μM, 4 hours) was ~50%, the “% Residual [^14C]-Compound 1 in incubation medium” value (“% Residual … in incubation medium” below) (rat primary hepatocytes; rat primary hepatocytes (n=1), 1 μM, 0 h) was 99% and the “% Residual … in incubation medium” value (rat primary hepatocytes; rat primary hepatocytes (n=1), 1 μM, 1 h) was 89%. For the same molecule, the “% Residual … in incubation medium” value (rat primary hepatocytes; rat primary hepatocytes (n=1), 1 μM, 8 h) was 21%, the “% Residual … in incubation medium” value (rat primary hepatocytes; rat primary hepatocytes (n=1), 1 μM, 24 h) was 0% and the “% Residual … in incubation medium” value (rat primary hepatocytes; rat primary hepatocytes (n=2), 10 μM, 0 h) was 95% and 97%. For the same molecule, the “% Residual … in incubation medium” value (rat primary hepatocytes; rat primary hepatocytes (n=2), 10 μM, 1 h) was 91% and 93%, the “% Residual … in incubation medium” value (rat primary hepatocytes; rat primary hepatocytes (n=2), 10 μM, 4 h) was 48% and 55% and the “% Residual … in incubation medium” value (rat primary hepatocytes; rat primary hepatocytes (n=2), 10 μM, 8 h) was 18% and 32%. The “% Residual … in incubation medium” value (rat primary hepatocytes; rat primary hepatocytes (n=2), 10 μM, 24 h) was 0%.
In the case of C[C@@]1(O)[C@H](O)[C@@H](COP(=O)(O)NCc2ccccc2)O[C@H]1n1cnc2c(=O)[nH]c(N)nc21 [Compound 2, [(2R)-2-methyl-β-D-ribofuranosyl]guanine-N-benzylaminyl-5′-monophosphate], the “% Residual Compound 2” value ([1]; 10 μM, NADPH) is reported as 19%, the “% Residual Compound 2” value ([1]; 10 μM, No Cofactor) is reported as 0% and the “metabolites observed in cellular extracts (% of total radioactivity)” value (rat primary hepatocytes; rat hepatocytes (Rs448, Rs458), 10 μM [^14C]-Compound 1, 1 h, listed as Compd 2) is reported as 1.92% and 3.48%. For the same molecule, the “metabolites observed in cellular extracts (% of total radioactivity)” value (rat primary hepatocytes; [2]) was “BLD”, the “metabolites observed in cellular extracts (% of total radioactivity)” value (rat primary hepatocytes; [3]) was “BLD” and the “metabolites observed in medium (% of total radioactivity)” value (rat primary hepatocytes; [4]) was 1.05%. For the same molecule, the “metabolites observed in cellular extracts (% of total radioactivity)” value (rat primary hepatocytes; [5]) was 5.83%, the “metabolites observed in medium (% of total radioactivity)” value (rat primary hepatocytes; [5]) was 3.02% and the “metabolites observed in cellular extracts (% of total radioactivity)” value (rat primary hepatocytes; [6]) was “BLD”. For the same molecule, the “metabolites observed in medium (% of total radioactivity)” value (rat primary hepatocytes; [6]) was 9.52%, the “metabolites observed in cellular extracts (% of total radioactivity)” value (rat primary hepatocytes; [7]) was “BLD” and the “metabolites observed in medium (% of total radioactivity)” value (rat primary hepatocytes; [7]) was 7% and 7.43%. For the same molecule, the “metabolites observed in medium (% of total radioactivity)” value (rat primary hepatocytes; [8]) was 2.2% and 1.5%, the “metabolites observed in medium (% of total radioactivity)” value (rat primary hepatocytes; [9]) was 1.9% and 1.5% and the “metabolites observed in medium (% of total radioactivity)” value (rat primary hepatocytes; [10]) was 5.3% and 5.1%. The “metabolites observed in medium (% of total radioactivity)” value (rat primary hepatocytes; [11]) was 5.7% and 6.8% and the “metabolites observed in medium (% of total radioactivity)” value (rat primary hepatocytes; [12]) was 3.7% and 4.6%.
